{"source": "patent US20040110124A1", "about": "“Method of enhancing radiation resistance of normal cells” (priority 2002, published 2004)", "format_in_all_cases": "cell-based", "key": {"[1]": {"system": "Rat-1 cells", "test": "Membrane potential recorded with fluorescent probe bis-oxonol", "method": "FIG. 1. Fluorescence measurement of Rat-1 cells before (Line A) and after (Line B) valinomycin (1.0 μM) treatment.\n(§1) Three normal cell lines (Rat-1, a fibroblast cell line; MS-1, an endothelial cell line and MDCK, a epithelial cell line) were studied. All three cell lines were cultured in Dulbecco's modified Eagle medium supplemented with 10% fetal calf serum, 100 U/ml penicillin and 100 ug/ml streptomycin (Gibco BRL, Gaithersburg, Md.) at 37° C. with 5% CO2. Cells were irradiated with a ^137Cs source at a dose rate of 300 cGy/min, and the viability of cells was measured by the MTT assay. Valinomycin was used as an agent to hyperpolarize the plasma membrane. The membrane potential was recorded with a fluorescent probe bis-oxonol, a negatively charged potential-sensitive fluorescent dye, which is distributed across the plasma membrane. Binding of this probe to intracellular components is dependent upon the membrane potential."}, "[2]": {"system": "Rat-1, MS-1 and MDCK cells", "test": "Cell survival after irradiation, MTT assay, all three normal cell lines together", "details": "valinomycin 0.01 μM to 1.0 μM", "method": "(§2) FIG. 2. Effect of valinomycin on radiation response of normal fibroblast cells. Rat-1 fibroblast cells were irradiated with 0-20 Gy in presence or absence of valinomycin. Valinomycin (0.01-1.0 μM) was added in the growth media immediately prior to irradiation, and removed at 2 hours or 3 days post irradiation. Three days after irradiation, cell survival was assessed by using the MTT assay.\n(§3) FIG. 3. Effect of valinomycin on radiation response of normal endothelial cells. MS1 endothelial cells were irradiated with 0-20 Gy in the presence or absence of valinomycin. Valinomycin (0.01-1.0 μM) was added in the growth media immediately prior to irradiation, and removed at 2 hours or 3 days post irradiation. Three days after irradiation, cell survival was assessed by using the MTT assay.\nFIG. 4. Effect of valinomycin on radiation response of normal epithelial cells. […] Three days after irradiation, cell survival was assessed by using the MTT assay.\nThree normal cell lines (Rat-1, a fibroblast cell line; MS-1, an endothelial cell line and MDCK, a epithelial cell line) were studied. […] Cells were irradiated with a ^137Cs source at a dose rate of 300 cGy/min, and the viability of cells was measured by the MTT assay. […] The membrane potential was recorded with a fluorescent probe bis-oxonol, a negatively charged potential-sensitive fluorescent dye, which is distributed across the plasma membrane. […]"}, "[3]": {"system": "MDCK epithelial cells", "test": "Cell survival after irradiation, MTT assay, normal epithelial cells", "details": "Canis lupus familiaris, light or radiation study, irradiated at 20 Gy, 1.0 μM valinomycin for 2 hours, 58% without valinomycin, read-out: relative survival (% of control)", "method": "FIG. 4. Effect of valinomycin on radiation response of normal epithelial cells. MDCK epithelial cells were irradiated with 0-20 Gy in the presence or absence of valinomycin. Valinomycin (0.01-1.0 μM) was added in the growth media immediately prior to irradiation, and removed at 2 hours or 3 days post irradiation. Three days after irradiation, cell survival was assessed by using the MTT assay.\nas §1"}, "[4]": {"system": "MS1 endothelial cells", "test": "Cell survival after irradiation, MTT assay, normal endothelial cells", "details": "light or radiation study, MS-1, irradiated at 20 Gy, 1.0 μM valinomycin for 2 hours, 45% without valinomycin, read-out: relative survival (% of control)", "method": "as §3, §1"}, "[5]": {"system": "Rat-1 fibroblast cells", "test": "Cell survival after irradiation, MTT assay, normal fibroblast cells", "details": "light or radiation study, Rat-1, irradiated at 20 Gy, 1.0 μM valinomycin for 2 hours, 25% without valinomycin, read-out: relative survival (% of control)", "method": "as §2, §1"}}, "data": [{"compound": "CC(C)[C@@H]1NC(=O)[C@H](C)OC(=O)[C@@H](C(C)C)NC(=O)[C@@H](C(C)C)OC(=O)[C@H](C(C)C)NC(=O)[C@H](C)OC(=O)[C@@H](C(C)C)NC(=O)[C@@H](C(C)C)OC(=O)[C@H](C(C)C)NC(=O)[C@H](C)OC(=O)[C@@H](C(C)C)NC(=O)[C@@H](C(C)C)OC1=O", "note": "[valinomycin]", "values": [{"measurement": "fluorescent reading, plasma membrane polarization", "setting": "[1]; valinomycin 1.0 μM, incubation 2 hours, Rat-1 cells (FIG. 1)", "result": "decrease in fluorescent reading"}, {"measurement": "decrease of intracellular fluorescence (bis-oxonol)", "setting": "[1]; valinomycin 0.01-1 nM for 2 hours or 3 days", "result": "55-60%"}, {"measurement": "intracellular fluorescence after valinomycin treatment", "setting": "[1]; valinomycin 0.01-1 nM for 2 hours or 3 days, 0.44-0.5 prior to treatment", "result": "0.18-0.20"}, {"measurement": "radiation protective effect across concentrations", "setting": "[2]", "result": "very similar radiation protective effects"}, {"measurement": "activity at 1 µM", "setting": "[3]", "result": 82, "unit": "%"}, {"measurement": "activity at 1 µM", "setting": "[4]", "result": 92, "unit": "%"}, {"measurement": "activity at 1 µM", "setting": "[5]", "result": 67, "unit": "%"}]}]}
